Source: US11566007B2, “Ras inhibitors” (Revolution Medicines, Inc., priority 2019, dated 2023)
Like-named read-outs stand apart in the source and are kept apart here.

Key:
K-Ras G12C = K-Ras G12C (Homo sapiens (Human), UniProt P01116+P62937, G12C); assay: Ras-Raf (BRAF RBD) disruption / FRET / MOA assay, KRAS G12C; type: biochemical; conditions: KRAS G12C; Ras-Raf disruption/FRET/MOA assay; read-out: IC50* KRAS G12C FRET data
Outline: (§1)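 Ras:RAF disruption was scored as a fall in TR-FRET ratio relative to DMSO. Compound ranged in 3-fold steps over 10 points from 30 μM final; incubation ran 3 h at 25° C, detection antibodies a further 1.5 h. Reported as IC50.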

[1] = system: NCI-H358 cells (K-Ras G12C); assay: Potency assay: pERK in NCI-H358 cells; type: cell-based, human; conditions: Homo sapiens
Outline: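 Compounds are dosed as ten 3-fold dilutions from a 10 mM DMSO stock, in duplicate, and left on cells for 4 h at 37 °C, 5% CO2. Phospho-ERK1/2 is then quantified by AlphaLISA SureFire Ultra or In-Cell Western, and IC50 is derived from a 4-parameter sigmoid against log concentration.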

KRAS WT = KRAS WT (Homo sapiens (Human), UniProt P01116+P62937); assay: Ras-Raf (BRAF RBD) disruption / FRET / MOA assay, KRAS WT; type: biochemical; conditions: read-out: IC50* KRAS WT FRET data
KRAS WT, sequence (P01116-2 other isoform, or with tags, fused parts or gaps): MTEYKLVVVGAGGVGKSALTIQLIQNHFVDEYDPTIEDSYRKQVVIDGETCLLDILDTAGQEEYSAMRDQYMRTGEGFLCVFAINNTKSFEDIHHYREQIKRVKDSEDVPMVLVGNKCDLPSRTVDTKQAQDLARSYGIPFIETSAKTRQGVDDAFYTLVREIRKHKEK
KRAS WT, sequence (P62937 whole entry): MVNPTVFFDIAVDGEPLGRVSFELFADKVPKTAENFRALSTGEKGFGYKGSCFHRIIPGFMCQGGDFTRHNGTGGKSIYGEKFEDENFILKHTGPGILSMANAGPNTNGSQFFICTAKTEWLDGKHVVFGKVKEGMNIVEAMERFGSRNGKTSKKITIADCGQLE
Outline: as §1

NRAS Q61K = NRAS Q61K (Homo sapiens (Human), UniProt P01111+P62937, Q61K); assay: Ras-Raf (BRAF RBD) disruption / FRET / MOA assay, NRAS Q61K; type: biochemical; conditions: NRAS Q61K; Ras-Raf disruption/FRET/MOA assay; read-out: IC50* NRAS Q61K FRET data
NRAS Q61K, sequence (P01111 whole entry Q61K): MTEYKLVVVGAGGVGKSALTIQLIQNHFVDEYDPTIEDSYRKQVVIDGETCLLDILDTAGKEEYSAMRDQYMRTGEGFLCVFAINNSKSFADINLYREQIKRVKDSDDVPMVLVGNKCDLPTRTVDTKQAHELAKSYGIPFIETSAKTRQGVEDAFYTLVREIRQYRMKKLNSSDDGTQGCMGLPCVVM
NRAS Q61K, sequence (P62937 whole entry): as the sequence (P62937 whole entry) above
Outline: (§2)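 TR-FRET disruption of nucleotide-loaded Ras binding to BRAF RBD via compound-driven ternary complex with cyclophilin A. Compound as 10-point 3-fold series from 30 μM final, 3 h at 25° C, then anti-His Eu-W1024 (10 nM) and anti-GST allophycocyanin (50 nM) for 1.5 h. IC50 from decreased FRET ratio versus DMSO.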

KRAS G12S = KRAS G12S (Homo sapiens (Human), UniProt P01116+P62937, G12S); assay: Ras-Raf (BRAF RBD) disruption / FRET / MOA assay, KRAS G12S; type: biochemical; conditions: Ras-Raf disruption/FRET/MOA assay; class symbols; read-out: KRAS G12S FRET data IC50
KRAS G12S, sequence (P01116-2 other isoform, or with tags, fused parts or gaps G12S): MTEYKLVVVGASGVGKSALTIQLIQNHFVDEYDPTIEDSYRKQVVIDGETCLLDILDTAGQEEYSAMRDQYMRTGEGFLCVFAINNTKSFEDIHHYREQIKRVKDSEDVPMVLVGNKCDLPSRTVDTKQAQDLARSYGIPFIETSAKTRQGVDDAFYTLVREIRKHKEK
KRAS G12S, sequence (P62937 whole entry): as the sequence (P62937 whole entry) above
Outline: as §1

KRAS Q61H = KRAS Q61H (Homo sapiens (Human), UniProt P01116+P62937, Q61H); assay: Ras-Raf (BRAF RBD) disruption / FRET / MOA assay, KRAS Q61H; type: biochemical; conditions: Ras-Raf disruption/FRET/MOA assay; class symbols; read-out: KRAS Q61H FRET data IC50
KRAS Q61H, sequence (P01116-2 other isoform, or with tags, fused parts or gaps Q61H): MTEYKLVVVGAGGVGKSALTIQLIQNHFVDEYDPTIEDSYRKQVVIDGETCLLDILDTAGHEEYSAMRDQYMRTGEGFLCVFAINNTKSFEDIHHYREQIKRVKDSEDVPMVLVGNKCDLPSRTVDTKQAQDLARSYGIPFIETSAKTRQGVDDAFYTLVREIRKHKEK
KRAS Q61H, sequence (P62937 whole entry): as the sequence (P62937 whole entry) above
Outline: as §2

KRAS G13D = KRAS G13D (Homo sapiens (Human), UniProt P01116+P62937, G13D); assay: Ras-Raf (BRAF RBD) disruption / FRET / MOA assay, KRAS G13D; type: biochemical; conditions: read-out: IC50* KRAS G13D FRET data
KRAS G13D, sequence (P01116-2 other isoform, or with tags, fused parts or gaps G13D): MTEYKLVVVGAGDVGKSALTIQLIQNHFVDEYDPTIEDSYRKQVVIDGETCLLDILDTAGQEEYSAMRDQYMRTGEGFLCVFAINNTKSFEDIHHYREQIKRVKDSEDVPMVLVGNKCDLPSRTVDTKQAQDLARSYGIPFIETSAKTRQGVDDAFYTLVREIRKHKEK
KRAS G13D, sequence (P62937 whole entry): as the sequence (P62937 whole entry) above
Outline: as §1

[2] = NCI-H358, H358 KRAS G12C, read-out: pERK EC50

K-Ras G12C, sequence (P01116-2 other isoform, or with tags, fused parts or gaps G12C): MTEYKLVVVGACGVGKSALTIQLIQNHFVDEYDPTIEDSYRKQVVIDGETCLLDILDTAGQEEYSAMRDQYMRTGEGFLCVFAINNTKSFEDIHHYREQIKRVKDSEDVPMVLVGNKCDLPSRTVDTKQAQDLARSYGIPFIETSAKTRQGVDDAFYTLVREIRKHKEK
K-Ras G12C, sequence (P62937 whole entry): as the sequence (P62937 whole entry) above

Compound	IC50 (K-Ras G12C)	EC50 [1, 2]	IC50 (KRAS WT)	IC50 (NRAS Q61K)	IC50 (KRAS G12S)	IC50 (KRAS Q61H)	IC50 (KRAS G13D)	EC50 ([1]; NCI-H358, read-out: pERK EC50)
C=CC(=O)N(C)CCN1CCN(C(=O)N(C)[C@H](C(=O)N[C@H]2Cc3cccc(c3)-c3ccc4c(c3)c(c(-c3cccnc3[C@H](C)OC)n4CC)CC(C)(C)COC(=O)[C@@H]3CCCN(N3)C2=O)C(C)C)CC1 (atropisomer, axis not shown) [Example A539]	100 to 1000 nM	< 5000 nM	100 to 1000 nM	100 to 1000 nM	100 to 1000 nM	100 to 1000 nM	1000 to 10000 nM	–
C=CC(=O)N1CCOC2(CCN(C(=O)N(C)[C@H](C(=O)N[C@H]3Cc4cc(C(F)F)cc(n4)-c4ccc5c(c4)c(c(-c4cccnc4[C@H](C)OC)n5CC(F)(F)F)CC(C)(C)COC(=O)[C@@H]4CCCN(N4)C3=O)C(C)C)CC2)C1 (atropisomer, axis not shown) [Example A541]	100 to 1000 nM	< 5000 nM	100 to 1000 nM	100 to 1000 nM	100 to 1000 nM	100 to 1000 nM	1000 to 10000 nM	–
C=CC(=O)N1CCC[C@]12CCN(C(=O)N(C)[C@H](C(=O)N[C@H]1Cc3nc(cs3)-c3ccc4c(c3)c(c(-c3cccnc3[C@H](C)OC)n4CC)CC(C)(C)COC(=O)[C@@H]3CCCN(N3)C1=O)C(C)C)C2 (atropisomer, axis not shown) [Example A548]	100 to 1000 nM	< 5000 nM	100 to 1000 nM	100 to 1000 nM	100 to 1000 nM	100 to 1000 nM	1000 to 10000 nM	–
C=CC(=O)N(C)CCN1CCN(C(=O)N(C)[C@H](C(=O)N[C@H]2Cc3cccc(c3)-c3ccc4c(c3)c(c(-c3cccnc3[C@H](C)OC)n4CC)CC(C)(C)COC(=O)[C@@H]3CCCN(N3)C2=O)C(C)C)C[C@H]1C (atropisomer, axis not shown) [Example A553]	100 to 1000 nM	< 5000 nM	100 to 1000 nM	1000 to 10000 nM	1000 to 10000 nM	100 to 1000 nM	1000 to 10000 nM	–
C=CC(=O)N1CCC2(CCN(C(=O)N(C)[C@H](C(=O)N[C@H]3Cc4cccc(c4)-c4ccc5c(c4)c(c(-c4cccnc4[C@H](C)OC)n5CC)CC(C)(C)COC(=O)[C@@H]4CCCN(N4)C3=O)C(C)C)CC2)C1 (atropisomer, axis not shown) [Example A554]	100 to 1000 nM	< 5000 nM	100 to 1000 nM	100 to 1000 nM	100 to 1000 nM	100 to 1000 nM	1000 to 10000 nM	–
C=CC(=O)N1CC[C@]2(C1)OCN([C@H](C(=O)N[C@H]1Cc3cc(cc(C(F)F)c3)-c3ccc4c(c3)c(c(-c3cccnc3[C@H](C)OC)n4CC)CC(C)(C)COC(=O)[C@@H]3CCCN(N3)C1=O)C(C)C)C2=O (atropisomer, axis not shown) [Example A557]	100 to 1000 nM	< 5000 nM	100 to 1000 nM	1000 to 10000 nM	100 to 1000 nM	10 to 100 nM	1000 to 10000 nM	–
CCn1c(-c2cccnc2[C@H](C)OC)c2c3cc(ccc31)-c1cccc(c1)C[C@H](NC(=O)[C@H](C(C)C)N1CC[C@]3(CCN(C(=O)C#C[C@H]4COCCN4C4COC4)C3)C1=O)C(=O)N1CCC[C@H](N1)C(=O)OCC(C)(C)C2 (atropisomer, axis not shown) [Example A568]	10 to 100 nM	< 5000 nM	> 10000 nM	> 10000 nM	1000 to 10000 nM	1000 to 10000 nM	> 10000 nM	–
CCn1c(-c2cccnc2[C@H](C)OC)c2c3cc(ccc31)-c1cccc(c1)C[C@H](NC(=O)[C@H](C(C)C)N1CC[C@]3(CCN(C(=O)C#C[C@@H]4COCCN4C)C3)C1=O)C(=O)N1CCC[C@H](N1)C(=O)OCC(C)(C)C2 (atropisomer, axis not shown) [Example A569]	10 to 100 nM	–	10 to 100 nM	> 10000 nM	1000 to 10000 nM	1000 to 10000 nM	> 10000 nM	< 5000 nM
C=CC(=O)N(C)CCN1CCN(C(=O)N(C)[C@H](C(=O)N[C@H]2Cc3cccc(c3)-c3ccc4c(c3)c(c(-c3cccnc3[C@H](C)OC)n4CC)CC(C)(C)COC(=O)[C@@H]3CCCN(N3)C2=O)C(C)C)C[C@@H]1C (atropisomer, axis not shown) [Example A570]	100 to 1000 nM	< 5000 nM	100 to 1000 nM	100 to 1000 nM	100 to 1000 nM	100 to 1000 nM	1000 to 10000 nM	–
C=CC(=O)N1CCO[C@H]2CN(C(=O)N(C)[C@H](C(=O)N[C@H]3Cc4nc(n(C)n4)-c4ccc5c(c4)c(c(-c4cccnc4[C@H](C)OC)n5CC(F)(F)F)CC(C)(C)COC(=O)[C@@H]4CCCN(N4)C3=O)C(C)C)C[C@H]21 (atropisomer, axis not shown) [Example A575]	10 to 100 nM	< 5000 nM	100 to 1000 nM	100 to 1000 nM	100 to 1000 nM	100 to 1000 nM	1000 to 10000 nM	–
C=CC(=O)N1CCO[C@]2(CCN(C(=O)N(C)[C@H](C(=O)N[C@H]3Cc4nc(cs4)-c4ccc5c(c4)c(c(-c4cccnc4[C@H](C)OC)n5CC(F)(F)F)CC(C)(C)COC(=O)[C@@H]4CCCN(N4)C3=O)C(C)C)C2)C1 (atropisomer, axis not shown) [Example A593]	100 to 1000 nM	< 5000 nM	1000 to 10000 nM	100 to 1000 nM	1000 to 10000 nM	100 to 1000 nM	1000 to 10000 nM	–
CCn1c(-c2cccnc2[C@H](C)OC)c2c3cc(ccc31)-c1csc(n1)C[C@H](NC(=O)[C@H](C(C)C)N(C)C(=O)N1CCC13CN(C(=O)/C=C/CN(C)C)C3)C(=O)N1CCC[C@H](N1)C(=O)OCC(C)(C)C2 (atropisomer, axis not shown) [Example A598]	10 to 100 nM	< 5000 nM	10 to 100 nM	10 to 100 nM	10 to 100 nM	< 10 nM	100 to 1000 nM	–
C=CC(=O)N1CCOC2(CCN(C(=O)N(C)[C@H](C(=O)N[C@H]3Cc4cccc(n4)-c4ccc5c(c4)c(c(-c4cccnc4[C@H](C)OC)n5CC(F)(F)F)CC(C)(C)COC(=O)[C@@H]4CCCN(N4)C3=O)C(C)C)CC2)C1 (atropisomer, axis not shown) [Example A607, 4-acryloyl-N-((2S)-1-(((6^3S,4S)-1^2-(2-((S)-1-methoxyethyl)pyridin-3-yl)-10,10-dimethyl-5,7-dioxo-1^1-(2,2,2-trifluoroethyl)-6^1,6^2,6^3,6^4,6^5,6^6-hexahydro-1^1H-8-oxa-1(5,3)-indola-6(1,3)-pyridazina-2(2,6)-pyridinacycloundecaphane-4-yl)amino)-3-methyl-1-oxobutan-2-yl)-N-methyl-1-oxa-4,9-diazaspiro[5.5]undecane-9-carboxamide]	100 to 1000 nM	< 5000 nM	100 to 1000 nM	100 to 1000 nM	1000 to 10000 nM	100 to 1000 nM	1000 to 10000 nM	–
CCn1c(-c2cccnc2[C@H](C)OC)c2c3cc(ccc31)-c1csc(n1)C[C@H](NC(=O)[C@H](C(C)C)N(C)C(=O)N1CCC13CN(C(=O)/C=C/CN1CCOCC1)C3)C(=O)N1CCC[C@H](N1)C(=O)OCC(C)(C)C2 (atropisomer, axis not shown) [Example A611]	100 to 1000 nM	< 5000 nM	100 to 1000 nM	10 to 100 nM	100 to 1000 nM	10 to 100 nM	100 to 1000 nM	–
